Structures are written as SMILES. Where “and” joins values, the source holds several entries; their conditions need not be identical. Equal entries are not always repeated.

For this assay, the system named is P. falciparum 3D7 growth, pLDH absorbance. As to the kind of experiment: blood-stage malaria parasite growth potency – strain 3D7, dose response (AID 2305).
Usually IC50 stands for the point on the concentration scale where inhibition reaches its midpoint. Lower therefore signals greater potency in that assay. The molecule `O=C(Nc1cccc(CN2CCCN(Cc3ccc4c(c3)OCO4)CC2)c1)c1ccc(-c2ccccc2)cc1` registered an IC50 of 0.65 µM. Then `NC1CCN(c2nc(NCCCc3ccc(O)cc3)nc(NCc3cccc4ccccc34)n2)CC1`, with 0.72 µM.

Molecule `COCCN1CCN(Cc2ccc(-c3cccc(-c4nc5ccccc5[nH]4)c3)cc2)CC1` displayed an IC50 of 1.11 µM. Then `CC(Cc1ccc(NC(=O)COc2ccc(CC(C)NCCc3cccc(Cl)c3)cc2)cc1)NCCc1cccc(Cl)c1` (stereo not given), with 0.08 µM; and `CC1CCN(CC[C@H]2CCCN2S(=O)(=O)c2cccc(NC(=O)Nc3ccc(C(F)(F)F)cc3)c2)CC1`, with 0.72 µM; and `CCCN(c1ccc(C(F)(F)F)cc1[N+](=O)[O-])S(=O)(=O)C(c1ccccc1)c1ccc(C(F)(F)F)cc1[N+](=O)[O-]` (stereo not given), with 1.22 µM. Then `CC(C)(C)COC(=O)c1ccc(NC(=O)N[C@@H](Cc2ccc(O)cc2)C(=O)NC2CCN(Cc3ccc(O)cc3)C2)cc1` (stereo not given in full), with 0.67 µM; and `CCOc1ccc(CNCCCCCCNCc2ccc(OCC)c3ccccc23)c2ccccc12`, with 0.45 µM. With `Cc1cc(NN=Cc2cccc(F)c2)c2cccc(C)c2n1`, the IC50 was found to be 0.77 µM. Under `COc1cccc(-c2cnc(N)c(-c3nc4cc(Cl)c(F)cc4[nH]3)c2)c1` stands 0.54 µM; under `O=C(NCC(NCCCNc1cc(=O)c2ccccc2[nH]1)c1cc(Br)cc(Br)c1)C1=CCCC1` (stereo not given), 0.9 µM; under `C=C[C@]1(C)C[C@@H](OC(=O)NC(=O)CCCS(=O)(=O)c2nnc(C)s2)[C@]2(C)[C@H](C)CC[C@]3(CCC(=O)[C@H]32)[C@@H](C)[C@@H]1O`, 0.03 µM. Then `CC1CCN(c2nc(C(=O)NCCc3ccc(Cl)c(Cl)c3)c(C(C)C)s2)CC1`, with 1.93 µM; and `CCC(CN1C(=O)C(c2ccccc2)(c2ccccc2)N=C1N)c1ccccc1` (stereo not given), with 0.14 µM; and `COc1ccc(NC(=O)CCNc2ccnc(NCCc3ccc(F)cc3)n2)cc1`, with 0.99 µM. Then `N#Cc1ccc(CN2CCC(NC(=O)c3ccc(-c4nnc(-c5cccc6ccccc56)o4)cc3)CC2)cc1`, with 0.68 µM; and `O=C(Nc1ccc(OC2CCN(Cc3ccc(F)cc3)CC2)c(Cl)c1)c1cccs1`, with 0.32 µM.

The molecule `Nc1cccc(CNCc2cccc(-c3ccc(-c4nc5ccccc5[nH]4)s3)c2)c1` registered an IC50 of 0.6 µM.

`CC(=O)Nc1cc(C(=O)Nc2cccc(-c3cccc(-c4nc5ccc(C(F)(F)F)cc5[nH]4)c3)c2)ccc1C` yielded an IC50 of 0.22 µM. Then `CC(=O)Nc1nc(C(=O)Nc2cccc(-c3ccc4c(cnn4CC4CC4)c3)c2)cs1`, with 0.74 µM; and `Cc1cccc2[nH]c(-c3ccc(-c4cccc(CNCCCN5CCCC5=O)c4)s3)nc12`, with 0.59 µM; and `FC(F)(F)c1ccc(NC(=S)NC2CCC(CN3CCC(c4c[nH]c5ccccc45)CC3)CC2)cc1` (stereo not given), with 0.73 µM and 0.39 µM.

Take `Oc1ccc(CN2CCN(CCOC(c3ccccc3)c3ccc(Cl)cc3)CC2)cc1Cl` (stereo not given): the IC50 was 0.86 µM.

With `CCNc1cc(C(=O)N[C@@H](Cc2ccccc2)[C@H](O)CNC2(C(C)C)CCC2)cc(N2CCCCS2(=O)=O)c1`, the half-inhibitory concentration (IC50) is 0.68 µM. Then `COc1ccc(CC2(CO)CCN(Cc3ccc(O)c(Cl)c3)CC2)cc1`, with 0.86 µM. Regarding `CCN(CC)CCN1C(=O)C(O)(c2ccccc2Cl)c2c1cc(C#N)cc2C(F)(F)F` (stereo not given), the IC50 turned out to be 0.95 µM. This IC50 and that of the molecule before are within 1.5-fold of each other. Under `Nc1cccc(CNCc2cccc(-c3csc(-c4nc5ccccc5[nH]4)c3)c2)c1` stands 0.68 µM; under `CC(C)C[C@@H](C(=O)N[C@H](C(=O)Nc1nccs1)C(C)(C)C)[C@H](CCC(F)(F)F)N(O)C=O`, 0.6 µM; under `CCCCCCc1cc2cc(-c3nc(-c4ccc(OC)cc4)cs3)c(=O)oc2cc1O`, 0.82 µM.

As to `O=C(NCC(c1ccc(C(F)(F)F)cc1)N1CCCC1)c1cc(-c2ccncc2)c(-c2cccc(O)c2)o1` (stereo not given), the IC50 is 1.06 µM. Then `OC(CNc1ccnc(Nc2cccc(Cl)c2)n1)c1cccc(F)c1` (stereo not given), with 0.97 µM; and `CN1CCCc2cc(NC(=O)C=Cc3ccc(-c4ccc(F)cc4F)o3)ccc2C1`, with 0.78 µM.

For `CCC1CN2CCc3cc(OC)c(OC)cc3C2CC1CC1NCCc2cc(OC)c(OC)cc21` (stereo not given), the IC50 is 0.14 µM.

For the molecule `CCN1CCC(N(Cc2ccc(-c3ccc(C(F)(F)F)cc3)cc2)C(=O)Cn2c(CCc3cccc(F)c3F)cc(=O)c3c2CCC3)CC1`, the IC50 worked out at 0.97 µM. As for `COC(=O)c1ccc2nc(-c3cc(OC)c(O)c(C(=O)NC4CCN(Cc5ccccc5)CC4)c3)[nH]c2c1`, the IC50 stood at 1.18 µM. Under `COCCNCc1cccc(-c2ccc3nccc(Nc4cc(O)ccc4C)c3c2)c1` stands 0.75 µM; under `COc1cc(C(=O)NC2CCN(Cc3ccccc3)CC2)ccc1-c1nc2cc(Cl)c(C)cc2[nH]1`, 0.3 µM; under `CCOc1ccc(S(=O)(=O)N(C)c2ccc(OCC(=O)Nc3nccs3)cc2)cc1`, 0.96 µM. Then `CC(C)CCN1CCC(Oc2ccc(NC(=O)c3ccc(F)cc3)cc2Cl)CC1`, with 0.72 µM. Under `COc1ccc2ncc(Cl)c([C@H](O)CN3CCC(NCc4cc5c(cn4)OCCO5)CC3)c2c1` stands 0.12 µM; under `Nc1c(Cl)cc(C(O)CNCCCCCOCCc2ccc3ccccc3n2)cc1Cl` (stereo not given), 1.02 µM. Molecule `Cn1cncc1C(=O)Nc1ccc(-c2cccc(-c3nc4ccc(C(F)(F)F)cc4[nH]3)c2)cc1` yielded an IC50 of 0.86 µM. This IC50 and that of the molecule before are within 1.5-fold of each other. `Cc1[nH]c(C)c(-c2ccc(-c3ccc(C(F)F)cc3)nc2)c(=O)c1Cl` returned an IC50 of 0.24 µM. `CCOc1cc(NC(=O)Nc2ccnc3ccccc23)cc(OC)c1` gave an IC50 of 0.87 µM. Compared with the last molecule, the IC50 is about 3.6-fold higher. Under `CCCC(=O)c1cnc2cc(O)ccc2c1Nc1ccccc1C` stands 0.65 µM; under `COc1cc(CNCCCNc2nc3ncccc3[nH]2)c2[nH]cc(Br)c2c1`, 1.16 µM. Then `Cc1ccc(N2C(N)=NC(N)=NC2c2ccccc2)cc1` (stereo not given), with 0.06 µM; and `CN(C)CCN(Cc1ccccc1-c1ccc(CNCCc2ccccc2)cc1)C(=O)NC1CCCCC1`, with 0.91 µM; and `FC(F)(F)c1ccc(CNCC2CCN(Cc3ccc4c(c3)OCO4)CC2)cc1`, with 1.36 µM. Under `FC(F)(F)c1ccc2nc(-c3ccc(-c4ccc(CNCc5cnn(-c6ccccc6)n5)cc4)cc3)[nH]c2c1` stands 0.43 µM; under `O=C(/C=C/c1ccc(C(F)(F)F)cc1)NCCCCCN1CCC(c2c[nH]c3ccccc23)CC1`, 0.68 µM. Turning to `O=C(/C=C/c1cccc(Cl)c1)Nc1ccc2nc(CN3CCCC3)ccc2c1`, the IC50 was found to be 0.26 µM. Then `COc1ccc2nc(C)cc(NN=Cc3cccc(F)c3)c2c1`, with 0.29 µM. Then `CCCCN(CCCC)CCC(O)C(=Cc1ccc(Cl)cc1Cl)c1ccc(C(F)(F)F)cc1N` (stereo not given), with 0.19 µM; and `CCOc1ccc2c(NN=Cc3ccccc3OC)cc(C)nc2c1`, with 0.5 µM; and `NC(N)=Nc1nccc(NCc2ccccc2)n1`, with 0.89 µM. Under `O=C(/C=C/c1ccc(C(F)(F)F)cc1)N1CCC(CCN2CCC(c3c[nH]c4ccccc34)CC2)CC1` stands 0.72 µM. Molecule `CCCCCc1cc(O)c2c(c1)OC(C)(C)CC2C1=CCN(Cc2ccccc2)CC1` (stereo not given) registered an IC50 of 0.77 µM. Then `COc1cccc(CN2CCC(C(=O)Nc3ccc(-c4nc5ccccc5[nH]4)cc3)CC2)c1`, with 0.63 µM; and `CC(C)C[C@@H](/C=N/NC(N)=O)NC(=O)[C@H](CC(C)C)NC(=O)[C@H](CC(C)C)NC(=O)OCc1ccccc1`, with 0.15 µM; and `COc1ccc(Br)cc1/C=C/C(=O)Nc1ccc(C2CCCN(C)C2)cc1` (stereo not given), with 0.63 µM. Under `O=C(Nc1cc(C(F)(F)F)cc(C(F)(F)F)c1)c1cccc([N+](=O)[O-])c1` stands 0.89 µM; under `CN(C)Cc1cccc(-c2ccc(NC(=O)c3ccc4c(=O)n(Cc5ccoc5)cnc4c3)cc2)c1`, 0.77 µM. `Cc1ccc(S(=O)(=O)N(CCCN2CCN(C)CC2)Cc2csc(-c3ccc(CNCc4ccccc4)cc3)n2)cc1` registered an IC50 of 0.84 µM. Under `O=C(c1cc(C(=O)NC2CCCCC2)c(=O)n(C2CCCCC2)c1)c1cc(F)ccc1O` stands 0.63 µM. Consider `CCCc1cc(OC)c(CC2c3cccc(O)c3CCN2C)cc1OC` (stereo not given), for which the IC50 stood at 0.3 µM.

The molecule `Cc1cccc2[nH]c(-c3ccc(-c4ccc(CNCc5ccccc5)cc4)s3)nc12` registered an IC50 of 0.21 µM. Under `O=C(Nc1ccc2c(c1)CCC2)c1ccc(N2CCN(c3ccncc3)CC2)cn1` stands 0.86 µM; under `CCN(CCCN1CCCCC1)c1cc(C)nc(Nc2ccc(OC)cc2)n1`, 0.62 µM; under `CO/C(=C\C=C\c1cc2cc(Cl)c(Cl)cc2[nH]1)C(=O)NC1CCN(CCOc2ccccc2)CC1`, 0.61 µM.

For `COc1ccc2nccc([C@@H](O)CN3CCC(NCc4ccc5c(c4)NC(=O)C(C)(C)O5)CC3)c2c1`, the IC50 came to 0.4 µM.

As for `Cc1cc(N[C@@H](Cc2ccccc2)C(=O)NCCOc2ccccc2)nc(Nc2ccccc2)n1`, the IC50 was determined as 0.87 µM. Compared with the last molecule, the IC50 is about 2.2-fold higher. Under `C(=N\Nc1nccc2sc(-c3cccnc3)cc12)/c1ccncc1` stands 0.21 µM; under `O=c1cc(NCCCNCc2cc(Br)ccc2F)[nH]c2ccccc12`, 0.85 µM; under `CN1CCC(NCc2ccc(-c3cccc(S(=O)(=O)NCCc4ccccn4)c3)cc2)CC1`, 0.99 µM. Under `CCN(CC)CCN(Cc1ccc(-c2ccc(C(F)(F)F)cc2)cc1)C(=O)Cn1c(CCc2ccc(F)c(C#N)c2)nc(=O)c2ccccc21` stands 0.77 µM; under `O=C(/C=C/c1ccc(Cl)cc1)Nc1ccc2nc(CN3CCCC3)ccc2c1`, 0.08 µM. Under `CS(=O)(=O)CCNc1cc(N2CCc3ncnc(Nc4ccc(OCc5cccc(F)c5)c(Cl)c4)c3C2)ncn1` stands 0.87 µM. `OCc1ccc(-c2cncc(Nc3cccc(Cl)c3)c2)cc1`: the IC50 came out at 0.07 µM. Under `O=C(Nc1cc(C(F)(F)F)cc(C(F)(F)F)c1)NC(CCCN1CCC2(CC1)OCc1ccccc12)c1ccc(Cl)c(Cl)c1` (stereo not given) stands 0.82 µM; under `Cc1ccc(NC(=O)NCCCCCN2CCC(c3c[nH]c4ccccc34)CC2)cc1I`, 0.81 µM; under `COc1ccc(C2CC(c3cccs3)=NN2C(=O)CNc2ccccc2F)cc1OC` (stereo not given), 0.63 µM.

`CCc1ccc(CN2CCC(CNC(=O)c3cc(-c4cccc(F)c4)cs3)C2)cc1` (stereo not given) showed an IC50 of 1.36 µM. Then `COc1ccc2c(c1)OC(C)(C)CC2=NOS(=O)(=O)c1ccc(C)cc1`, with 0.21 µM; and `N#Cc1cccc(CN(Cc2ccc(Cl)c(Cl)c2)S(=O)(=O)c2cccc([N+](=O)[O-])c2)c1`, with 0.81 µM.
